Results reported in ChEMBL document CHEMBL3804772, “Enantioselective synthesis and antioxidant activity of 3,4,5-substituted piperidine derivatives” (Bioorg Med Chem Lett, 2016).

assay: Antioxidant activity assessed as ABTS radical scavenging activity after 60 mins; format: physicochemical

SMILES | IC50 [µM]
CCOC(=O)[C@@H]1C(=O)N(Cc2ccccc2)C[C@@H](ON2C(C)(C)CCCC2(C)C)[C@H]1c1ccc(C)cc1 | 98.4
CCOC(=O)[C@@H]1C(=O)N(Cc2ccccc2)C[C@@H](O)[C@H]1c1ccccc1 | > 100
CCOC(=O)[C@@H]1C(=O)N(Cc2ccccc2)C[C@@H](O)[C@H]1c1ccc(C)cc1 | > 100
Cc1ccc([C@H]2[C@H](CO)CN(Cc3ccccc3)C[C@H]2O)cc1 | 85.3
OC[C@@H]1CN(Cc2ccccc2)CC[C@H]1c1ccccc1 | > 100
OC[C@@H]1CN(Cc2ccccc2)C[C@@H](O)[C@H]1c1ccc(F)cc1 | 9.61
CCOC(=O)[C@@H]1C(=O)N(Cc2ccccc2)C[C@@H](ON2C(C)(C)CCCC2(C)C)[C@H]1c1ccc(F)cc1 | 15.9
CCOC(=O)[C@@H]1C(=O)N(Cc2ccccc2)CC[C@H]1c1ccccc1 | > 100
CCOC(=O)[C@@H]1C(=O)N(Cc2ccccc2)C[C@@H](O)[C@H]1c1ccc(F)cc1 | > 100
CC1(C)CCCC(C)(C)N1[O] | 0.026
O=C1O[C@H]([C@@H](O)CO)C(O)=C1O [ASCORBIC ACID] | 25.6
O=c1c(O)c(-c2ccc(O)c(O)c2)oc2cc(O)cc(O)c12 [QUERCETIN] | 5.57

Now from value to compound:

IC50 [µM] | SMILES
0.09 | Cc1ccc([C@H]2[C@H](CO)CN(Cc3ccccc3)C[C@H]2ON2C(C)(C)CCCC2(C)C)cc1
> 100 | OC[C@@H]1CN(Cc2ccccc2)C[C@@H](O)[C@H]1c1ccccc1
0.095 | CC1(C)CCCC(C)(C)N1O[C@@H]1CN(Cc2ccccc2)C[C@@H](CO)[C@@H]1c1ccc(F)cc1
12.2 | CCOC(=O)[C@@H]1C(=O)N(Cc2ccccc2)C[C@@H](ON2C(C)(C)CCCC2(C)C)[C@H]1c1ccccc1
0.573 | CC(=O)OC[C@@H]1CN(Cc2ccccc2)C[C@@H](ON2C(C)(C)CCCC2(C)C)[C@H]1c1ccccc1
0.093 | CC1(C)CCCC(C)(C)N1O[C@@H]1CN(Cc2ccccc2)C[C@@H](CO)[C@@H]1c1ccccc1
